From paper PMC2912373, “Low-Density Lipoprotein Receptor-Related Protein 1 (LRP1) Mediates Neuronal Aβ42 Uptake and Lysosomal Trafficking” (PLoS ONE, 2010)

What was measured:
N2a-mLRP4 cells = experiment: Steady-state FAM-Aβ42 accumulation (continuous feeding), FACS; type: cell-based, mouse; conditions: for levels of FAM-Aβ42 in N2a-mLRP4 cells compared to N2a-pcDNA3 cells: 500 nM FAM-Aβ42, 37°C, n = 3
Description: To determine whether internalized Aβ42 is accumulated over time, we performed continuous feeding experiments of FAM-Aβ42 in N2a-pcDNA3 and N2a-mLRP4 cells. The steady-state levels and localization of Aβ42 were determined by flow cytometry and confocal microscopy, respectively (Fig. 2). Cells were incubated with 500 nM FAM-Aβ42 at 37°C for 24, 48 or 72 h and the content of fluorescence per cell was quantified by FACS and presented as a percentage of the levels in N2a-pcDNA3 at each time point (Fig. 2A). […] Therefore, we analyzed the subcellular localization of internalized FAM-Aβ42 by confocal microscopy in N2a cells treated as before and analyzed co-localization with lysosomes. For the visualization of acidic organelles, a brief incubation with LysoTracker Red at the end of the experiment was included (Fig. 2B). After 24 h of incubation, a small amount of cell-associated Aβ42 can be detected in N2a-mLRP4 cells.
Figure 2 Increased accumulation of intracellular Aβ42 within lysosomes in LRP1 minireceptor-expressing cells. A, increased Aβ42 accumulation in LRP1 minireceptor-expressing cells. N2a-mLRP4 and N2a-pcDNA3 cells were treated with 500 nM of FAM-Aβ42 at 37°C for 24, 48 and 72 h, and steady-state levels of intracellular Aβ42 were determined by flow cytometric analyses of pronase-treated cells as described in the Experimental Procedures. […] B, increased co-localization of intracellular Aβ42 and lysosomes in N2a-mLRP4 cells. N2a-pcDNA3 and N2a-mLRP4 cells were grown in glass chamber slides and treated with 500 nM of FAM-Aβ42 at 37°C for 24, 48 and 72 h. Lysosomes were labeled with LysoTracker 30 min before the end of each incubation. Cells were then fixed and analyzed by confocal microscopy.
For quantification of Aβ uptake experiments, stable N2a cells were plated into 12-well plates at 16,250 cells/cm^2 and grown overnight. Similar to imaging assays, cells were washed twice with PBS and incubated for the indicated periods of time with pre-warmed internalization media containing 500 nM FAM -Aβ42. After incubation, cells were washed twice with PBS and non-enzymatically detached as before in 500 µL cell dissociation solution. Cells were sequentially washed once with 1 mL of cold internalization media and twice with 2 mL cold PFN. Cells were finally resuspended in PFN-1% PFA and analyzed by FACS as before. For MEF-1 and MEF-2 experiments, 5,000 cells/cm^2 were plated in 12-well plates the day before. Cells were then washed twice with PBS and incubated 4 h with pre-warmed internalization media containing 500 nM FAM-Aβ42. After completion of the incubation time, cells were processed by FACS analysis as described above for N2a cells.
LRP1 knockdown was carried out in GT1-7 cells by siRNA transfection using Lipofectamine 2000 (Invitrogen, Carlslab, CA) and 120 nM of dsRNA duplex (Ambion, Austin, TX). Briefly, cells were plated in 6-well plates the day before transfection and grown overnight. Scrambled and LRP1 siRNA duplexes were generated according to the manufacturer's instruction and complexed with Lipofectamine 2000 as previously described. FAM-Aβ42 experiments were performed 72 h after siRNA transfection and analyzed as previously described for N2a cells. For clathrin heavy chain knockdown, shRNA lentiviruses were produced in the Viral Vectors Core facility at Washington University School of Medicine. In brief, 293T cells were transfected with pLKO.1-derived constructs together with the pHR'8.2ΔR and pCMV-VSV-G packaging systems as previously described. […]

MEF cells = experiment: FAM-Aβ42 internalization in wild-type (MEF1) and LRP1 knockout (MEF2) fibroblasts, FACS; type: cell-based, mouse; conditions: 500 nM FAM-Aβ42, 37°C, 4 h, n = 3, p<0.01
Description: To rule out cell type-specific effects and artifacts due to the expression of LRP1 minireceptor, we performed similar FAM-Aβ42 uptake experiments in GT1-7 neuronal cells with reduced endogenous LRP1 levels by siRNA knockdown (Fig. 3A), and in mouse embryonic fibroblasts from both wild-type (MEF1) and LRP1 knockout mice (MEF2) (Fig. 3B). GT1-7 cells were plated and treated as indicated in the Experimental Procedures and GT1-7 and MEF cells were incubated with 500 nM of FAM-Aβ42 at 37°C for 4 h. Steady-state levels of intracellular Aβ42 were determined by flow cytometric analysis of pronase-treated cells. […]
Figure 3 LRP1 mediates internalization and accumulation of Aβ42 in GT1-7 and MEF cells. […] After 72 h, cells were treated with 500 nM FAM-Aβ42 for 4 h and intracellular Aβ42 was determined by flow cytometric analyses of pronase-treated cells as described in the Experimental Procedures. […] Wild type (MEF1) and LRP1 knockout (MEF2) fibroblasts were treated with 500 nM FAM-Aβ42 for 4 h, and intracellular Aβ42 was determined by flow cytometric analyses. ** p<0.01, t-test. n = 3. C, cell lysates from GT1-7 and MEF cells treated as in A and B, analyzed by 7.5% SDS-PAGE, and Western blotted with anti-LRP1 antibodies.
For quantification of Aβ uptake experiments, stable N2a cells were plated into 12-well plates at 16,250 cells/cm^2 and grown overnight. […]

FAM-Aβ42: FAM-Aβ42 peptide (23526) from Anaspec; amyloid-β 42 with carboxyfluorescein at the N-terminal region
levels of FAM-Aβ42 in N2a-mLRP4 cells compared to N2a-pcDNA3 cells (N2a-mLRP4 cells; 24 h, FACS of pronase-treated cells): slight increase
levels of FAM-Aβ42 in N2a-mLRP4 cells compared to N2a-pcDNA3 cells (N2a-mLRP4 cells; 48 h, FACS of pronase-treated cells): twice the levels
levels of FAM-Aβ42 in N2a-mLRP4 cells compared to N2a-pcDNA3 cells (N2a-mLRP4 cells; 72 h, FACS of pronase-treated cells): twice the levels
cell-associated FAM-Aβ42 in N2a-mLRP4 cells compared to N2a-pcDNA3 cells (N2a-mLRP4 cells; 500 nM, 48 h, FACS, pronase-treated and untreated cells): increases
FAM-Aβ42 uptake in clathrin knocked down cells compared to control, empty lentivirus (N2a-mLRP4 cells; N2a-mLRP4, clathrin heavy chain shRNA lentivirus, 500 nM, 48 h, FACS of pronase-treated cells): twofold decrease
internalization of FAM-Aβ42 in MEF2 (LRP1 knockout) compared to MEF1 (wild type) (MEF cells): decrease
